Laboratory results published in PubChem BioAssay AID2060490 (Molecular Pharmacology Branch, DTP, NCI, 2025).

Test system: 885512-296-R-J2-PDC complex spheroid viability
Test: Anticancer human tumor 885512-296-R-J2-PDC patient-derived breast carcinoma cell line growth inhibition [GQUAD]
Settings: for IC50: curve of first compound; for viability, T/C: stronger effect = lower value
Method in brief: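 Multi-cell-type spheroids of tumor cells with HUVEC and mesenchymal stem cells, treated with drug combinations. Concentrations descend in half-log steps from near clinical Cmax, or from 10 microM where Cmax is unknown; viability read-out.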

[1] = second compound 0.0316 µM, first compound 0.0316 µM
[2] = second compound 0.0316 µM, first compound 0.1 µM
[3] = second compound 0.0316 µM, first compound 0.316 µM
[4] = second compound 0.0316 µM, first compound 1 µM
[5] = second compound 0.0316 µM, first compound 3.16 µM
[6] = second compound 0.0316 µM, first compound 10 µM
[7] = second compound 0.1 µM, first compound 0.0316 µM
[8] = second compound 0.1 µM, first compound 0.1 µM
[9] = second compound 0.1 µM, first compound 0.316 µM
[10] = second compound 0.1 µM, first compound 1 µM
[11] = second compound 0.1 µM, first compound 3.16 µM
[12] = second compound 0.1 µM, first compound 10 µM
[13] = second compound 0.316 µM, first compound 0.0316 µM
[14] = second compound 0.316 µM, first compound 0.1 µM
[15] = second compound 0.316 µM, first compound 0.316 µM
[16] = second compound 0.316 µM, first compound 1 µM
[17] = second compound 0.316 µM, first compound 3.16 µM
[18] = second compound 0.316 µM, first compound 10 µM
[19] = second compound 1 µM, first compound 0.0316 µM
[20] = second compound 1 µM, first compound 0.1 µM
[21] = second compound 1 µM, first compound 0.316 µM
[22] = second compound 1 µM, first compound 1 µM
[23] = second compound 1 µM, first compound 3.16 µM
[24] = second compound 1 µM, first compound 10 µM
[25] = second compound 3.16 µM, first compound 0.0316 µM
[26] = second compound 3.16 µM, first compound 0.1 µM
[27] = second compound 3.16 µM, first compound 0.316 µM
[28] = second compound 3.16 µM, first compound 1 µM
[29] = second compound 3.16 µM, first compound 3.16 µM
[30] = second compound 3.16 µM, first compound 10 µM
[31] = second compound 10 µM, first compound 0.0316 µM
[32] = second compound 10 µM, first compound 0.1 µM
[33] = second compound 10 µM, first compound 0.316 µM
[34] = second compound 10 µM, first compound 1 µM
[35] = second compound 10 µM, first compound 3.16 µM
[36] = second compound 10 µM, first compound 10 µM
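Also: spheroids exposed to the compounds for one week.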
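For viability, T/C in this document: percent of tumor spheroid viability relative to DMSO vehicle control wells.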

Question: With `C#Cc1c(F)ccc2cc(O)cc(-c3ncc4c(N5CC6CCC(C5)N6)nc(OCC56CCCN5CC(F)C6)nc4c3F)c12` (centres undefined) + Cc1cnc(CNC(=O)c2c(=O)c3ccc(N4CCCN(C)CC4)nc3n3c2sc2ccccc23)cn1 as the molecule, how does the IC50 (second compound 0.0316 µM) read?
Answer: > 10000 nM

Question: What about the IC50 (second compound 0.1 µM) of the same molecule?
Answer: > 10000 nM

Question: What about the IC50 (second compound 0.316 µM) of the same molecule?
Answer: < 31.6 nM

Question: What about the IC50 (second compound 1 µM) of the same molecule?
Answer: < 31.6 nM

Question: What about the IC50 (second compound 3.16 µM) of the same molecule?
Answer: < 31.6 nM

Question: What about the IC50 (second compound 10 µM) of the same molecule?
Answer: < 31.6 nM

Question: What about the viability, T/C [1] of the same molecule?
Answer: 81.9%

Question: And the viability, T/C [2]?
Answer: 80.5%

Question: What about the viability, T/C [3] of the same molecule?
Answer: 85.2%

Question: And the viability, T/C [4]?
Answer: 83.9%

Question: What about the viability, T/C [5] of the same molecule?
Answer: 96.2%

Question: And the viability, T/C [6]?
Answer: 83.5%

Question: What about the viability, T/C [7] of the same molecule?
Answer: 60.2%

Question: What about the viability, T/C [8] of the same molecule?
Answer: 60.3%

Question: And the viability, T/C [9]?
Answer: 69.4%

Question: And the viability, T/C [10]?
Answer: 59.8%

Question: And the viability, T/C [11]?
Answer: 66.5%

Question: And the viability, T/C [12]?
Answer: 56.5%

Question: What about the viability, T/C [13] of the same molecule?
Answer: 32.4%

Question: What about the viability, T/C [14] of the same molecule?
Answer: 26.6%

Question: What about the viability, T/C [15] of the same molecule?
Answer: 31.7%

Question: What about the viability, T/C [16] of the same molecule?
Answer: 34.7%

Question: What about the viability, T/C [17] of the same molecule?
Answer: 22.9%

Question: What about the viability, T/C [18] of the same molecule?
Answer: 31.9%

Question: And the viability, T/C [19]?
Answer: 24.9%

Question: And the viability, T/C [20]?
Answer: 23.8%

Question: And the viability, T/C [21]?
Answer: 24.6%

Question: And the viability, T/C [22]?
Answer: 28.2%

Question: And the viability, T/C [23]?
Answer: 29.4%

Question: And the viability, T/C [24]?
Answer: 23.9%

Question: What about the viability, T/C [25] of the same molecule?
Answer: 24.8%

Question: What about the viability, T/C [26] of the same molecule?
Answer: 32.1%

Question: What about the viability, T/C [27] of the same molecule?
Answer: 26.4%

Question: And the viability, T/C [28]?
Answer: 28.7%

Question: And the viability, T/C [29]?
Answer: 29.1%

Question: And the viability, T/C [30]?
Answer: 9.52%

Question: What about the viability, T/C [31] of the same molecule?
Answer: 0.12%

Question: And the viability, T/C [32]?
Answer: 0.16%

Question: What about the viability, T/C [33] of the same molecule?
Answer: 0.18%

Question: And the viability, T/C [34]?
Answer: 0.13%

Question: What about the viability, T/C [35] of the same molecule?
Answer: 0.19%

Question: And the viability, T/C [36]?
Answer: 0.16%

Question: With `O=c1[nH]cc(F)c(=O)[nH]1` + Cc1cnc(CNC(=O)c2c(=O)c3ccc(N4CCCN(C)CC4)nc3n3c2sc2ccccc23)cn1 as the molecule, how does the IC50 (second compound 0.0316 µM) read?
Answer: > 10000 nM

Question: What about the IC50 (second compound 0.1 µM) of the same molecule?
Answer: > 10000 nM

Question: And the IC50 (second compound 0.316 µM)?
Answer: < 31.6 nM

Question: What about the IC50 (second compound 1 µM) of the same molecule?
Answer: < 31.6 nM

Question: And the IC50 (second compound 3.16 µM)?
Answer: < 31.6 nM

Question: What about the IC50 (second compound 10 µM) of the same molecule?
Answer: < 31.6 nM

Question: What about the viability, T/C [1] of the same molecule?
Answer: 90.9%

Question: And the viability, T/C [2]?
Answer: 75.9%

Question: And the viability, T/C [3]?
Answer: 87.1%

Question: And the viability, T/C [4]?
Answer: 69.5%

Question: What about the viability, T/C [5] of the same molecule?
Answer: 59.4%

Question: And the viability, T/C [6]?
Answer: 52.1%

Question: And the viability, T/C [7]?
Answer: 68.3%

Question: What about the viability, T/C [8] of the same molecule?
Answer: 70.2%

Question: And the viability, T/C [9]?
Answer: 54.4%

Question: What about the viability, T/C [10] of the same molecule?
Answer: 66.3%

Question: What about the viability, T/C [11] of the same molecule?
Answer: 51.1%

Question: What about the viability, T/C [12] of the same molecule?
Answer: 56.8%

Question: And the viability, T/C [13]?
Answer: 30%

Question: What about the viability, T/C [14] of the same molecule?
Answer: 27.2%

Question: What about the viability, T/C [15] of the same molecule?
Answer: 23.6%

Question: And the viability, T/C [16]?
Answer: 19.8%

Question: And the viability, T/C [17]?
Answer: 38%

Question: And the viability, T/C [18]?
Answer: 36.1%

Question: What about the viability, T/C [19] of the same molecule?
Answer: 29.9%

Question: What about the viability, T/C [20] of the same molecule?
Answer: 28.4%

Question: And the viability, T/C [21]?
Answer: 26.4%

Question: And the viability, T/C [22]?
Answer: 28%

Question: What about the viability, T/C [23] of the same molecule?
Answer: 23.1%

Question: What about the viability, T/C [24] of the same molecule?
Answer: 27.6%

Question: What about the viability, T/C [25] of the same molecule?
Answer: 23.5%

Question: What about the viability, T/C [26] of the same molecule?
Answer: 27.8%

Question: What about the viability, T/C [27] of the same molecule?
Answer: 22.4%

Question: What about the viability, T/C [28] of the same molecule?
Answer: 20.4%

Question: What about the viability, T/C [29] of the same molecule?
Answer: 29.4%

Question: What about the viability, T/C [30] of the same molecule?
Answer: 24.1%

Question: What about the viability, T/C [31] of the same molecule?
Answer: 0.1%

Question: What about the viability, T/C [32] of the same molecule?
Answer: 0.16%

Question: And the viability, T/C [33]?
Answer: 0.21%

Question: And the viability, T/C [34]?
Answer: 0.13%

Question: And the viability, T/C [35]?
Answer: 0.19%

Question: And the viability, T/C [36]?
Answer: 0.16%
